The values below come from publication PMC7985570 (Signal Transduction and Targeted Therapy, 2021).

Like-named read-outs stand apart in the source and are kept apart here.

One data set deals with VSV-G pseudovirus. The data set can be described thus: microbe, parasite or virus in culture. In kind it is cell-based. Particulars: read-out: VSV-G Pseudovirus EC50.
Data set [1] has as its system SARS-CoV-2 S-G614 pseudovirus. The note with it: for EC50: read-out: S-G614 Pseudovirus EC50.
The test system of data set [2] is S-G614 pseudovirus. The data set can be described thus: microbe, parasite or virus in culture. Particulars: for EC50: Pseudovirus, 293T/ACE2, read-out: 293T-ACE2 Cells EC50 BAPTA-AM (0μM). It is filed as cell-based, SARS-CoV-2.
In data set [3] the test system is S-G614 pseudovirus. In words: microbe, parasite or virus in culture. It is filed as cell-based. Particulars: read-out: EC50 against S-G614 pseudovirus in all three cell lines.
Another data set can be described thus: in vitro. Particulars: human, 293T-ACE2 CC50.
Data set [4] concerns SARS-CoV-2 S-G614 pseudovirus. The data set can be described thus: organism not typed. Particulars: 293T/ACE2, read-out: S-G614 Pseudovirus EC50.
The target of data set [5] is receptor-binding domain (RBD) in the S protein of SARS-CoV-2 (Severe acute respiratory syndrome coronavirus 2, UniProt P0DTC2).
For data set [6], the system named is SARS-CoV-2 S-mediated membrane fusion of 293T-ACE2 cells. It is filed as cell-based.
A further data set relates to native SARS-CoV-2. It is filed as cell-based.
In a further data set the test system is SARS-CoV-2. Particulars: cited from earlier work.

On to `Cc1nnc(C(=O)NC(C)(C)c2nc(C(=O)NCc3ccc(F)cc3)c([O-])c(=O)n2C)o1.[K+]` [SC109, Raltegravir (potassium salt)], for which the EC50 with VSV-G pseudovirus turned out to be 0.0359 µM. This compound also had a CC50 in the data set with 293T-ACE2 cells of more than 50 µM. Besides, in data set [1], the “SI (cytotoxicity)” value is on record as “>247647” and the EC50 was determined as 0.0002 µM.

As to `COc1ccc(C[C@@H]2c3cc(Oc4cc(C[C@@H]5c6cc(OC)c(OC)cc6CCN5C)ccc4O)c(OC)cc3CCN2C)cc1` [SC185, Neferine], the concentration giving a half-maximal response (EC50) in the data set on S-G614 pseudovirus [2] is 0.946 µM; with S-G614 pseudovirus [3], less than 10 µM; in the data set on VSV-G pseudovirus (Pseudovirus), more than 50 µM; in data set [4], 0.95 µM. The compound also registered a CC50 in “in vitro” of more than 50 µM. For the same compound, the “interaction with RBD” value in [5] is given as “negligible”. For the same compound, the “decrease of fusion rates” value in [6] is listed as “approximately 90%”. For the same compound, in the data set on native SARS-CoV-2, the “Virus-induced cytopathogenic effect and viral RNA levels” value was “partially inhibited”. Also, the “relative viral RNA levels” value with native SARS-CoV-2 amounted to 76.98%.

As to `Cl.N=c1ccn2c(n1)O[C@H]1[C@H](O)[C@@H](CO)O[C@H]12` [SC33, Ancitabine (hydrochloride)], the concentration giving a half-maximal response (EC50) in the data set on VSV-G pseudovirus is more than 50 µM. For the same compound, the CC50 with 293T-ACE2 cells was more than 50 µM. Also, in data set [1], the “SI (cytotoxicity)” value is “>4.94” and the EC50 worked out at 10.1 µM.

As to `COc1ccc2cc1Oc1ccc(cc1)C[C@H]1c3cc(c(OC)cc3CCN1C)Oc1c(OC)c(OC)cc3c1[C@H](C2)N(C)CC3` [SC182, Tetrandrine], the EC50 is less than 10 µM in the data set on S-G614 pseudovirus [3], 27.9 µM with VSV-G pseudovirus (Pseudovirus) and 0.9 µM in [4]. For the same compound, the CC50 in the data set “in vitro” is more than 50 µM. The “SI (cytotoxicity)” value in [1] (human) was “>55.80”. In addition, the “decrease of fusion rates” value in data set [6] is reported as “approximately 90%”.

With `COc1cc2c(cc1OC)[C@@H](Cc1ccc(O)c(Oc3cc4c(cc3OC)CCN(C)[C@@H]4Cc3ccc(O)cc3)c1)N(C)CC2` [SC186, Liensinine], the EC50 in the data set with VSV-G pseudovirus was more than 50 µM. The compound also showed a CC50 in the data set on 293T-ACE2 cells of more than 50 µM. In addition, in data set [1], the “SI (cytotoxicity)” value was “>49.80” and the EC50 stood at 1 µM.

In the case of `O=C1Nc2ccc(Cl)cc2[C@@](C#CC2CC2)(C(F)(F)F)O1` [SC102, Efavirenz], the CC50 in “in vitro” is more than 50 µM. The EC50 came to 0.000723 µM in the data set with VSV-G pseudovirus (Pseudovirus) and 0.00038 µM in data set [4]. Besides, the “SI (cytotoxicity)” value in data set [1] (human) is “>130890”.

On to `COc1ccc2cc1Oc1ccc(cc1)C[C@H]1c3cc(c(OC)cc3CCN1C)Oc1c(O)c(OC)cc3c1[C@H](C2)N(C)CC3` [SC180, Fangchinoline], for which, in “in vitro”, the CC50 is more than 50 µM. Moreover, the EC50 came out at 4.39 µM in the data set on VSV-G pseudovirus (Pseudovirus) and 0.94 µM in data set [4]. In addition, the “SI (cytotoxicity)” value in [1] (human) is listed as “>53.39”.

As for `CC(N)C12CC3CC(CC(C3)C1)C2.Cl` (stereo not shown) [SC16, Rimantadine (hydrochloride)], the CC50 in the data set with 293T-ACE2 cells was more than 50 µM. In [1], the “SI (cytotoxicity)” value is “>1.45” and the EC50 is 34.6 µM.

Consider `Cc1cccc2c3c(ccc12)C1=C(C(=O)C3=O)[C@@H](C)CO1` [SC24, Dihydrotanshinone I], for which, in the data set “in vitro”, the CC50 was determined as 33.5 µM. In addition, the EC50 in data set [4] stood at 15.7 µM. For the same compound, the “SI (cytotoxicity)” value in data set [1] (human) came out at 0.90.

`CC(=O)OCOC(=O)CN(CC(=O)OCOC(C)=O)c1ccccc1OCCOc1ccccc1N(CC(=O)OCOC(C)=O)CC(=O)OCOC(C)=O` [BAPTA-AM, reference compound]: in the data set on S-G614 pseudovirus [2], the “SARS-CoV-2 pseudovirus infection on intracellular Ca2+ chelation” value is “significantly diminished”.

`COc1ccc2cc1Oc1ccc(cc1)C[C@H]1c3c(cc4c(c3Oc3cc5c(cc3OC)CCN(C)[C@@H]5C2)OCO4)CCN1C` [SC9, Cepharanthine]: the EC50 with S-G614 pseudovirus [2] came out at 0.315 µM. Besides, the EC50 with S-G614 pseudovirus [3] was less than 10 µM. In data set [5], the “interaction with RBD” value is “negligible”. Further, the “decrease of fusion rates” value in [6] is “approximately 90%”. Also, in the data set on native SARS-CoV-2, the “Virus-induced cytopathogenic effect and viral RNA levels” value was “partially inhibited”; the “relative viral RNA levels” value stood at 0.08%.

Consider `CC1CCN(CC(O)COc2cccc(OCC(O)CN3CCC(C)CC3)c2)CC1` (stereo not shown) [SC171, 3,3'-(1,3-phenylenebis(oxy))bis(1-(4-methylpiperidin-1-yl)propan-2-ol)], for which, in the data set with S-G614 pseudovirus [2], the EC50 worked out at 3.83 µM. Besides, the EC50 in the data set with S-G614 pseudovirus [3] is less than 10 µM. For the same compound, the “interaction with RBD” value in [5] is given as “negligible”. For the same compound, in the data set on native SARS-CoV-2, the “Virus-induced cytopathogenic effect and viral RNA levels” value is reported as “partially inhibited”; the “relative viral RNA levels” value is on record as 43.55%.

As for Berbamine hydrochloride [SC183], the EC50 was more than 50 µM in the data set on VSV-G pseudovirus and 1.28 µM in data set [1]. The CC50 with 293T-ACE2 cells (human) is more than 50 µM. Further, the “SI (cytotoxicity)” value in data set [1] (human) is recorded as “>38.94”.

In turn, `COc1ccc(C[C@@H]2c3cc(Oc4cc(C[C@@H]5c6cc(O)c(OC)cc6CCN5C)ccc4O)c(OC)cc3CCN2C)cc1` [SC188, Isoliensinine] registered a CC50 in “in vitro” of more than 50 µM. Moreover, the EC50 was determined as 7.02 µM in the data set on VSV-G pseudovirus (Pseudovirus) and 1.29 µM in data set [4]. Further, in [1] (human), the “SI (cytotoxicity)” value is given as “>38.88”.

On to `COc1cc2c(cc1O)[C@@H](Cc1ccc(O)c(Oc3ccc(C[C@@H]4c5cc(OC)c(OC)cc5CCN4C)cc3)c1)N(C)CC2` [SC187, Daurisoline], for which the EC50 in the data set with VSV-G pseudovirus is more than 50 µM; in [1], 2.48 µM. Besides, the CC50 in the data set on 293T-ACE2 cells was more than 50 µM. Besides, the “SI (cytotoxicity)” value in [1] is on record as “>20.13”.

For the compound `CCOC(=O)C1=C(COCCN)NC(C)=C(C(=O)OC)C1c1ccccc1Cl` (stereo not shown) [amlodipine], the viral infection result with SARS-CoV-2 is on record as “reduced viral infection”.

In the case of `COc1ccc2cc1Oc1ccc(cc1)C[C@H]1c3cc(c(OC)cc3CCN1C)Oc1c(OC)c(OC)c(OC)c3c1[C@H](C2)N(C)CC3` [SC161, Hernandezine], the results for the EC50 in the data set on S-G614 pseudovirus [2] and with S-G614 pseudovirus [3] were 0.111 µM and less than 10 µM, respectively. The “interaction with RBD” value in [5] is “negligible”. Further, the “decrease of fusion rates” value in data set [6] is recorded as “approximately 90%”. The “Virus-induced cytopathogenic effect and viral RNA levels” value with native SARS-CoV-2 is on record as “partially inhibited”. Further, the “relative viral RNA levels” value in the data set on native SARS-CoV-2 is 70.27%.

For the compound Aloperine [SC96], the EC50 in the data set on VSV-G pseudovirus was determined as 10.8 µM. In addition, the CC50 in the data set on 293T-ACE2 cells was more than 50 µM. In addition, in data set [1], the “SI (cytotoxicity)” value is listed as “>176.87” and the EC50 worked out at 0.28 µM.

The compound `COc1c2c(cc3c1-c1c(cc4c(c1OC)OCO4)C[C@H](C)[C@H](C)C3)OCO2` [SC8, Schisandrin C] came in with a CC50 in the data set “in vitro” of more than 50 µM. Also, in data set [4], the EC50 is 14.6 µM. Also, the “SI (cytotoxicity)” value in data set [1] (human) is “>3.43”.

Take `COc1cc2c(cc1OC)[C@@H](Cc1ccc(Oc3cc(C[C@@H]4c5cc(OC)c(OC)cc5CCN4C)ccc3O)cc1)N(C)CC2` [SC184, Dauricine]: the CC50 in “in vitro” is more than 50 µM. The half-maximal effective concentration (EC50) in the data set on VSV-G pseudovirus (Pseudovirus) was more than 50 µM; in data set [4], 1.43 µM. For the same compound, the “SI (cytotoxicity)” value in data set [1] (human) is reported as “>34.99”.

For the compound `COc1ccc2cc1Oc1ccc(cc1)CC1c3cc(c(OC)cc3CCN1C)Oc1c(O)c(OC)cc3c1C(C2)N(C)CC3` (stereo not shown) [SC181, Isofangchinoline], the half-maximal effective concentration (EC50) in the data set on VSV-G pseudovirus is 3.95 µM. Also, in the data set with 293T-ACE2 cells, the CC50 is more than 50 µM. In [1], the “SI (cytotoxicity)” value is listed as “>45.00” and the EC50 worked out at 1.11 µM.

Compound `CCOC(=O)[C@H]1O[C@@H]1C(=O)N[C@@H](CC(C)C)C(=O)NCCC(C)C` [Aloxistatin, aloxistatin, reference compound] yielded a CC50 in the data set “in vitro” of more than 50 µM. The results for the half-maximal effective concentration (EC50) (in the data set with VSV-G pseudovirus (Pseudovirus); in data set [4]) were more than 50 µM and 0.923 µM, respectively. In [1] (human), the “SI (cytotoxicity)” value is “>54.17”.

A word on the EC50: it is the midpoint of the concentration-response curve.
